Values quoted from earlier work as cited in patent US20050129764A1, “Osmotic device containing licofelone” (priority 2003, published 2005).

Key:
[1] = 200 mg dose administered twice daily
[2] = single dose (800-3,200) mg, volunteers
[3] = test system: osteoarthritis of the knee; details: phase III

elimination half-life (T1/2β) [1]: 8.7 to 11.1 h
peak plasma licofelone concentrations [1]: 1650 to 1750 ng/mL
time post-dose at which peak plasma concentrations were reached [1]: 0.74 to 4 h
SMILES: CC1(C)Cc2c(-c3ccccc3)c(-c3ccc(Cl)cc3)c(CC(=O)O)n2C1 [licofelone]
tolerability [2]: generally well tolerated
improvement in efficacy parameters ([3]; licofelone 400 mg/day bid): greatest improvement in efficacy parameters
efficacy in long-term treatment of osteoarthritis of the knee vs naproxen ([3]; n=704, licofelone 200 and 400 mg/day bid, naproxen 1000 mg/day bid): at least as effective as naproxen
activity in animal experiments: antiphlogistic, analgesic, antipyretic, antiasthmatic and antiaggregative activity
gastrointestinal damage at active dosage (animal experiments): no gastrointestinal damage
